For three molecules, IC50 and GI50 results are on record in US20260365670A1, “EGFR INHIBITORS AND USES THEREOF” (DIZAL (JIANGSU) PHARMACEUTICAL CO., LTD., priority 2022, published 2026).

Read-outs that look alike come from different tables or passages of the source.

One test concerns the target T1, EGFR L858R/T790M (Homo sapiens, UniProt P00533, L858R/T790M).
T1 construct: purchased Carna Bio
Briefly: Inhibition of EGFR L858R/T790M biochemical enzymatic activity (HTRF). The following applies: EGFR L858R-T790M, 1 mM ATP, 1 h, room temperature, read-out: IC50 (nM) @L858R-T790M. A digest of the protocol:
(§1)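 Read-out is the HTRF 665/615 nm ratio (excitation 320 nm), taken as proportional to kinase activity after a 1 h room-temperature reaction with 1 mM ATP and 1 μM biotinylated TK substrate. IC50 values derive from four-parameter logistic fitting.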
In general terms: Time-resolved FRET reads energy transfer from a long-lived donor to a nearby acceptor.

The target in another test is T2, EGFR L858R (Homo sapiens, UniProt P00533, L858R).
T2 construct: purchased Carna Bio
Nature of the test: Inhibition of EGFR L858R biochemical enzymatic activity (HTRF). Particulars: 1 mM ATP, 1 h, room temperature, read-out: IC50 (nM) @L858R. A digest of the protocol: as §1

A further test has as its system A-431. Nature of the test: Cell proliferation GI50, A-431 cells (Table 6). Format: cell-based. The following applies: Homo sapiens, A-431, A-431 cells.
Another test addresses T3, EGFR (d746-750 C797S) (Homo sapiens, UniProt P00533, C797S/DEL746-750).
T3 construct: purchased signalchem
Nature of the test: Inhibition of EGFR (d746-750 C797S) biochemical enzymatic activity (HTRF). The following applies: EGFR Del19-C797S, 1 mM ATP, 1 h, room temperature, read-out: IC50 (nM) @Del19-C797S. In a few lines:
as §1

Test [1] relates to Ba/F3 cells expressing EGFR mutations. Nature of the test: Cell proliferation assay, Ba/F3 cells expressing EGFR mutations (CellTiter-Glo, 72 hours). Format: cell-based. Particulars: Mus musculus, BaF3, 72 h, CellTiter-Glo. A digest of the protocol: (§2)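 Cells are exposed to graded compound concentrations after overnight plating, using 500 PC-9 or 5000 Ba/F3 per well. Baseline-subtracted viability is compared with vehicle to give percent proliferation, then GI50.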
(In general: In ATP-based viability assays light output follows the ATP content of the culture.)

The target of a further test is T4, EGFR (C797S L858R) (Homo sapiens, UniProt P00533, C797S/L858R).
T4 construct: purchased signalchem
Briefly: Inhibition of EGFR (C797S L858R) biochemical enzymatic activity (HTRF). The following applies: EGFR L858-C797S, 1 mM ATP, 1 h, room temperature, read-out: IC50 (nM) @L858-C797S. In a few lines:
as §1

In another test the target is T5, EGFR wild type (Homo sapiens, UniProt P00533).
T5 construct: purchased Carna Bio
Briefly: Inhibition of EGFR wild type biochemical enzymatic activity (HTRF). Particulars: EGFR WT, 1 mM ATP, 1 h, room temperature, read-out: IC50 (nM) @WT. In a few lines:
as §1

In another test the target is T6, EGFR Exon19Del/T790M (Homo sapiens, UniProt P00533, DEL746-750/T790M).
T6 construct: purchased Carna Bio
Briefly: Inhibition of EGFR Exon19Del/T790M biochemical enzymatic activity (HTRF). Particulars: EGFR Del19-T790M, 1 mM ATP, 1 h, room temperature, read-out: IC50 (nM) @Del19-T790M. A digest of the protocol:
as §1

The target in test [2] is T7, EGFR[T790M/C797S/d746-750] (Homo sapiens, UniProt P00533, C797S/DEL746-750/T790M).
T7 construct: purchased Carna Bio
Nature of the test: Inhibition of EGFR[T790M/C797S/d746-750] biochemical enzymatic activity (HTRF). Particulars: EGFR T790M-C797S-Del19, 1 mM ATP, 1 h, room temperature, read-out: IC50 (nM) @T790M - C797S - Del19. A digest of the protocol:
as §1

Another test deals with PC-9. Nature of the test: Cell proliferation assay, PC-9 cells (CellTiter-Glo, 72 hours). Particulars: Homo sapiens, PC-9, 72 h, PC9 cells, CellTiter-Glo, read-out: PC9 GI50. Format: cell-based. In a few lines: as §2
A further test addresses T8, EGFR[T790M/C797S/L858R] (Homo sapiens, UniProt P00533, C797S/L858R/T790M).
T8 construct: purchased Carna Bio
Nature of the test: Inhibition of EGFR[T790M/C797S/L858R] biochemical enzymatic activity (HTRF). The following applies: EGFR T790M-C797S-L858R, 1 mM ATP, 1 h, room temperature, read-out: IC50 (nM) @T790M- C797S - L858R. In a few lines: as §1

The target of another test is T9, EGFR Exon19Del (Homo sapiens, UniProt P00533, DEL746-750).
T9 construct: purchased Carna Bio
Briefly: Inhibition of EGFR Exon19Del biochemical enzymatic activity (HTRF). Particulars: EGFR Del19, 1 mM ATP, 1 h, room temperature, read-out: IC50 @Del19. A digest of the protocol:
as §1

The mark [3] stands for this setting: BaF3 cells, EGFR DEL19-C797S, read-out: DEL19-C797S/BaF3 GI50.
Where [4] appears, read: BaF3 cells, EGFR DEL19-T790-C797S, read-out: DEL19-T790-C797S/BaF3 GI50.
The mark [5] stands for this setting: BaF3 cells, EGFR L858R, read-out: L858R/BaF3 GI50.
The mark [6] stands for this setting: BaF3 cells, EGFR L858R-C797S, read-out: L858R-C797S/BaF3 GI50.
Where [7] appears, read: BaF3 cells, EGFR L858R-T790-C797S, read-out: L858R-T790-C797S/BaF3 GI50.
The mark [8] stands for this setting: BaF3 cells, EGFR L858R-T790M, read-out: L858R-T790M/BaF3 GI50.
[9] abbreviates: EGFR DEL19-T790M, read-out: DEL19-T790M GI50.

T9 sequence (P00533 with tags, fused parts or gaps DEL746-750 limits assumed): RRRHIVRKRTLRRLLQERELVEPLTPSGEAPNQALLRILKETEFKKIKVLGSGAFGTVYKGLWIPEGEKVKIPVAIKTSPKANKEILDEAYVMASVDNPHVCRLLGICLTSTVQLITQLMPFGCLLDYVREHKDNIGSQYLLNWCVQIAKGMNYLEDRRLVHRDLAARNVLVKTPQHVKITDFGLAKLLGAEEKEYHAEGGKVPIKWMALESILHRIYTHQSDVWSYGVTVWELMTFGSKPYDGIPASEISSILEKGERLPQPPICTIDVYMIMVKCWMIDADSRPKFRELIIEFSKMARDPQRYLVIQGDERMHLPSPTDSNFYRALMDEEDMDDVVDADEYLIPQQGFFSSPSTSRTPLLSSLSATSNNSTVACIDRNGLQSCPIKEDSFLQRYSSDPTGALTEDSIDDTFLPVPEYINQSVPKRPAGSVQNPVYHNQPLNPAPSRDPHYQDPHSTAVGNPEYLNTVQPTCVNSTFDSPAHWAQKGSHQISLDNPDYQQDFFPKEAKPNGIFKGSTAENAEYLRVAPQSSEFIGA
T2 sequence (P00533 25-1210 L858R): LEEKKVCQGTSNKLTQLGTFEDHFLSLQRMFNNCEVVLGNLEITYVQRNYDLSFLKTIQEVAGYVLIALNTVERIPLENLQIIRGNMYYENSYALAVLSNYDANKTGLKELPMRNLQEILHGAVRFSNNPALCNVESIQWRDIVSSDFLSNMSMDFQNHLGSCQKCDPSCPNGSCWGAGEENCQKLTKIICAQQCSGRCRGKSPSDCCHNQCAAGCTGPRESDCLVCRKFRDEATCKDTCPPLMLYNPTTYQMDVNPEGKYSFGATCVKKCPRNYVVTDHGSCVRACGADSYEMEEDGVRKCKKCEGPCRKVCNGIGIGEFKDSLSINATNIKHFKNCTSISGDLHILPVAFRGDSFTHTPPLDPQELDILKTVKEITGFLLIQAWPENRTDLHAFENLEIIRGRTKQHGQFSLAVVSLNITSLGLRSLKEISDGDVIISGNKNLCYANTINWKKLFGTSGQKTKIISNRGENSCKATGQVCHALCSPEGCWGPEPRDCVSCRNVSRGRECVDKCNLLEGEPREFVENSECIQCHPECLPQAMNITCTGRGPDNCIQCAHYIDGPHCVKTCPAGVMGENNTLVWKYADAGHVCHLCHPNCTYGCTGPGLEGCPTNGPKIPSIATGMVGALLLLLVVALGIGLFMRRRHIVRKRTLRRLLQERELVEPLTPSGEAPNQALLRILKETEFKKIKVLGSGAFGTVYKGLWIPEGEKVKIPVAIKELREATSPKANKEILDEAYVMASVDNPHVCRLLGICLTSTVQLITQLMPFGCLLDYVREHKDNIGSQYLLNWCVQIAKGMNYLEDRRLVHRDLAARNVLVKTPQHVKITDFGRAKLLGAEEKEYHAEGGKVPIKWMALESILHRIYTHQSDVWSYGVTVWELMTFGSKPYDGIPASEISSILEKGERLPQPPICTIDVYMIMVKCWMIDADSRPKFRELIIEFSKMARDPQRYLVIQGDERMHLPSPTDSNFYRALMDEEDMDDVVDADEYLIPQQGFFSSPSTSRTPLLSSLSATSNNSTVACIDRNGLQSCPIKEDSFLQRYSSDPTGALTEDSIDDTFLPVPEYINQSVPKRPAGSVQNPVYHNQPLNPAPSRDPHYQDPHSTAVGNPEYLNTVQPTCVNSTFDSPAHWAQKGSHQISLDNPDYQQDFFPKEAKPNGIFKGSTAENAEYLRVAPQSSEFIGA
T8 sequence (P00533 25-1210 T790M/C797S/L858R): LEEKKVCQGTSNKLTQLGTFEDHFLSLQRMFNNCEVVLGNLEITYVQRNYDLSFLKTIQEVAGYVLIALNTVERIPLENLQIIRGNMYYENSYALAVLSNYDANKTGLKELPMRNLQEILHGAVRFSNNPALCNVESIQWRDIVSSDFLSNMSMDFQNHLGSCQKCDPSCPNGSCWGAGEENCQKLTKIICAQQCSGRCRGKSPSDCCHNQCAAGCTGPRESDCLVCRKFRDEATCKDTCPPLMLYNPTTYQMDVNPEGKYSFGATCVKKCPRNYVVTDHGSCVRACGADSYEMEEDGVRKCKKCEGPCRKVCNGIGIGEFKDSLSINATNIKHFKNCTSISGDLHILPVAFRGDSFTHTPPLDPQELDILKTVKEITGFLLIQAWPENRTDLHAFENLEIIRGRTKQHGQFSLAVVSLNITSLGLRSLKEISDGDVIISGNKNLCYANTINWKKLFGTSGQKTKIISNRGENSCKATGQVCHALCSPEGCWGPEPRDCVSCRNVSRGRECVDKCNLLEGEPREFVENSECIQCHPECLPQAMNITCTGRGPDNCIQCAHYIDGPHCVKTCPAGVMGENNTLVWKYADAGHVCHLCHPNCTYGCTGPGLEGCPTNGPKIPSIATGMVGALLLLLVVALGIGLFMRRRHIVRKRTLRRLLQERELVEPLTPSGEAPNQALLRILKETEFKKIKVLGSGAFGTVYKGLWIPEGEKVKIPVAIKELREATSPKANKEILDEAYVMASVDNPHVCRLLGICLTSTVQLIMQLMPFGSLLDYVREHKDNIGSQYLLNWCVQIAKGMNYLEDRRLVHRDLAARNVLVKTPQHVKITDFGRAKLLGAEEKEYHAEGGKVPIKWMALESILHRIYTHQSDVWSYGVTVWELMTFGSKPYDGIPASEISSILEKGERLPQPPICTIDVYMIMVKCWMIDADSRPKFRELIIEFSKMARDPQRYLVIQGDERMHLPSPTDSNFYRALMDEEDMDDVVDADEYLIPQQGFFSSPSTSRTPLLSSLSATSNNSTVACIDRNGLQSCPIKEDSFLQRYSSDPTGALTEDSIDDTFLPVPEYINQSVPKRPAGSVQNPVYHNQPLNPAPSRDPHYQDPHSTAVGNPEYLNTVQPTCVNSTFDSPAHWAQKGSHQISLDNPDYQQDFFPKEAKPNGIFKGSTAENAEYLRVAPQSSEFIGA
T5 sequence (P00533 25-1210): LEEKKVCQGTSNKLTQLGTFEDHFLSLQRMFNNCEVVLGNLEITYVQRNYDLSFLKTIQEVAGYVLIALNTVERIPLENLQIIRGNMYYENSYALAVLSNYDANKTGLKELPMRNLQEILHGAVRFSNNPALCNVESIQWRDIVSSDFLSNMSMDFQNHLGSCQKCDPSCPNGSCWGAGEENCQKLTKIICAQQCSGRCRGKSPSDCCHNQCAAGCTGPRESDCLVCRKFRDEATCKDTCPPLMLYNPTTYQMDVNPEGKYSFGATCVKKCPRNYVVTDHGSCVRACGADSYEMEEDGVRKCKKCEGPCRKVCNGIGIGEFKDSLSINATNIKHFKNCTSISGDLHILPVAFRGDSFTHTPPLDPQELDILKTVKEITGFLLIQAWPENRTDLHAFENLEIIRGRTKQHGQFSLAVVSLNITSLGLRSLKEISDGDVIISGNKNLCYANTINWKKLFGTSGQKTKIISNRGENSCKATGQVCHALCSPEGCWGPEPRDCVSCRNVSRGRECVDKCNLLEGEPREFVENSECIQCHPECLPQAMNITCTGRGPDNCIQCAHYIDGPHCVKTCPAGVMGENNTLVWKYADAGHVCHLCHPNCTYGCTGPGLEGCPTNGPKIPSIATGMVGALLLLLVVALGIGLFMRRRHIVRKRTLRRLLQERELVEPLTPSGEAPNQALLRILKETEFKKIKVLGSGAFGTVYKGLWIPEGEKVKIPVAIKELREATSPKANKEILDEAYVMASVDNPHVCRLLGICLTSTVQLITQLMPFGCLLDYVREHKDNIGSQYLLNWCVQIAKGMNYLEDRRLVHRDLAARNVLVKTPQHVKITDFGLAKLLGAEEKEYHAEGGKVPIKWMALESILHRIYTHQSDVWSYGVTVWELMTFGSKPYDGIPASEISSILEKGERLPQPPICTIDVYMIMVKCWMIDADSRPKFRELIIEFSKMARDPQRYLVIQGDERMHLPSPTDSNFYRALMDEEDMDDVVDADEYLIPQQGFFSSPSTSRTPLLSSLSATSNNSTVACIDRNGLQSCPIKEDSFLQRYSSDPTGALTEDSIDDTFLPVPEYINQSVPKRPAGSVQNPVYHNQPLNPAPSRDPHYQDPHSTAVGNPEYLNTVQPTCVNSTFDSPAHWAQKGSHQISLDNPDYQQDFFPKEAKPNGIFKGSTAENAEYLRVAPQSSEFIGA
T7 sequence (P00533 with tags, fused parts or gaps DEL746-750/T790M/C797S limits assumed): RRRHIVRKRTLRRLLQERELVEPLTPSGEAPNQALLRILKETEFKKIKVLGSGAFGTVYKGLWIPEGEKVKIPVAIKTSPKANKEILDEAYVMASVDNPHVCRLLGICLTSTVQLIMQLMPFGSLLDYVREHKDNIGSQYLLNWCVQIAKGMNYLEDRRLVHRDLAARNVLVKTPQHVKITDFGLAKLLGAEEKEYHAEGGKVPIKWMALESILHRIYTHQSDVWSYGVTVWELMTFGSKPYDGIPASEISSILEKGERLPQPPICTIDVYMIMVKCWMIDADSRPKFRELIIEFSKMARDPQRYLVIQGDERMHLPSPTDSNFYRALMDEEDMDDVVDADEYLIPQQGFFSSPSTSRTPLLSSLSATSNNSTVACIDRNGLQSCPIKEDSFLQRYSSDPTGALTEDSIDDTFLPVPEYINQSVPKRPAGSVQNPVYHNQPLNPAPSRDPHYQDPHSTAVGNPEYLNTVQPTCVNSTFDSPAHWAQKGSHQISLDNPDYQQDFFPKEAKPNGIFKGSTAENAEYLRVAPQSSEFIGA

Broadly, the IC50 is the concentration that inhibits the measured activity by half. Turning to `CCN1CCOc2c(cnn2C)-c2cc(cn(C)c2=O)C(=O)Nc2nc3ccccc3n2C(C)C1` (stereo not drawn) [Example A6, 10-Ethyl-5,12,26-trimethyl-7-oxa-4,5,10,13,20,22,26-heptaazapentacyclo[22.3.1.0^{2,6}.0^{13,21}.0^{14,19}]octacosa-1(28),2(6),3,14,16,18,20,24-octaene-23,27-dione], the IC50 is over 5000 nM at EGFR L858R/T790M; over 5000 nM on EGFR L858R; 1870 nM on EGFR (d746-750 C797S); over 5000 nM at EGFR (C797S L858R); over 5000 nM on EGFR wild type; 1530 nM at EGFR Exon19Del/T790M. The concentration for half-maximal inhibition (IC50) was 1230 nM in [2], over 5000 nM on EGFR[T790M/C797S/L858R] and 1.67 µM at EGFR Exon19Del. Besides, the GI50 was 1.78 µM with A-431; 0.204 µM in test [1] (setting [3]); 1.05 µM in test [1] (setting [4]); 1.31 µM in [1] (setting [5]); 0.919 µM in [1] (setting [6]); 1.54 µM in test [1] (setting [7]). For the same molecule, the GI50 in [1] (setting [8]) was 0.795 µM; in [1] (setting [9]) it was 0.968 µM; in the test with PC-9, 0.403 µM.
With `Cn1ncc2c1OCCN1CCCCC(C1)n1c(nc3ccccc31)NC(=O)c1cc-2c(=O)n(C)c1` (stereo not drawn) [Example A8, 15,21-Dimethyl-23-oxa-2,9,11,15,20,21,26-heptaazahexacyclo[24.4.1.1^{13,17}.0^{2,10}.0^{3,8}.0^{18,22}]dotriaconta-3,5,7,9,13,17(32),18(22),19-octaene-12,16-dione], the half-inhibitory concentration (IC50) at EGFR L858R/T790M is over 5000 nM; on EGFR L858R, over 5000 nM; at EGFR (d746-750 C797S) it was 256 nM; at EGFR (C797S L858R) it was 3550 nM; on EGFR wild type, over 5000 nM; at EGFR Exon19Del/T790M it was 290 nM. The results for the IC50 (in test [2]; on EGFR[T790M/C797S/L858R]; at EGFR Exon19Del) were 226 nM, over 5000 nM and 0.368 µM, respectively. Besides, the GI50 in the test on A-431 was found to be 3.89 µM; in [1] (setting [3]) it was 0.093 µM; in test [1] (setting [4]), 0.401 µM; in test [1] (setting [5]), 0.18 µM; in test [1] (setting [6]), 0.332 µM; in [1] (setting [7]), 0.214 µM. For the same molecule, the GI50 in [1] (setting [8]) came out at 0.977 µM; in [1] (setting [9]), 0.256 µM; in the test on PC-9 it was 0.18 µM.
`Cn1ncc2c1OCCN1CC3(CCCC1C3)n1c(nc3ccc(N4CCOCC4)cc31)NC(=O)c1cc-2c(=O)n(C)c1` (stereo not drawn) [Example A9, 15,21-Dimethyl-5-(morpholin-4-yl)-23-oxa-2,9,11,15,20,21,26-heptaazaheptacyclo[24.4.1.1^{1,27}.1^{13,17}.0^{2,10}.0^{3,8}.0^{18,22}]tritriaconta-3,5,7,9,13,17(33),18(22),19-octaene-12,16-dione]: the half-maximal inhibitory concentration (IC50) at EGFR L858R/T790M is over 5000 nM; at EGFR L858R it was over 5000 nM; on EGFR (d746-750 C797S), 536 nM; at EGFR (C797S L858R), over 5000 nM; at EGFR wild type, over 5000 nM; on EGFR Exon19Del/T790M, 198 nM. The half-inhibitory concentration (IC50) is 316 nM in test [2], over 5000 nM at EGFR[T790M/C797S/L858R] and 0.264 µM on EGFR Exon19Del. The GI50 in the test with A-431 is 3.02 µM; in [1] (setting [3]), 0.055 µM; in test [1] (setting [4]), 0.405 µM; in test [1] (setting [5]) it was 0.608 µM; in [1] (setting [6]), 0.515 µM; in test [1] (setting [7]), 0.607 µM. Further, the GI50 came out at 0.264 µM in test [1] (setting [8]), 0.364 µM in test [1] (setting [9]) and 0.211 µM in the test on PC-9.
